According to patent publication EP4112728A1, “METHOD FOR I[…]-BINDING PEPTIDES” (ETH Zürich, priority 2021, dated 2023):

What was measured:
[1] = tested on: other clinically relevant Gram negative and positive bacteria; experiment: Minimal inhibitory concentration (MIC) against other strains; format: cell-based; conditions: range over the strains tested (FIG.21)
[2] = tested on: cspA promoter; experiment: Stress response assay, cold shock response (PcspA-gfp) indicating translation inhibition; format: cell-based, E. coli; conditions: GFP under cspA promoter, relative to inactive control HNP-1; one sided t-test, adj. p<0.05
From the text: Lastly, the inventors characterized the 50 most growth inhibitory (38 SIMILARS, 12 PARENTS) peptides using different assays (FIG.18). The inventors first used two biosensor constructs, containing the cspA and recA promoters, which upon activation are indicative of translation impairment and DNA damage, respectively. […] Next, the inventors measured membrane damage by quantifying propidium iodide (PI) uptake.
The inventors selected peptide-expressing strains of rank 1-50, previously generated for the monoseptic growth assay. […] Moreover, two plasmids (cloning vector: puA66) containing either the promoter of the gene for recombinase A (PrecA) or for the gene for cold shock protein A (PcspA) were purified from the E. coli Alon collection. Both plasmids contained a transcriptional fusion of their promoter with a downstream gene for green fluorescent protein (gfp), an additional kanamycin resistance cassette and a pSC101 origin of replication. […] The inventors recorded OD and GFP expression (λEx 488 nm/λEm 530nm) after 1.5 h and 4.5 h using a Tecan Infinite 200 PRO (37 °C, 1.5 mm orbital shaking). For each strain, the inventors calculated the specific fluorescence change between the two time points (GFP/OD (4.5 h) - GFP/OD (1.5 h)). Statistical significance was calculated by one sided t-tests, adjusted for multiple testing by Benjamini-Hochberg, using the signal of HNP-13425 APD

Sequence | MIC [1] | translational impairment [2]
GWFKKAWRKVKHAGRRVLDTAKGVGRHYLNNWLNRYR [ID 4545] | 0.4 to 5.6 µM | –
VDKGGYLPRPTPPRPVYR [ID 7122] | – | strongest indication for translational impairment
